15 molecules from patent US9023844B2, “Heterocyclylpyri (mi) dinylpyrazole as fungicidals” (Bayer Intellectual Property GmbH, priority 2011, dated 2015) can be followed below.

SMILES strings stand for the structures. Like-named read-outs stand apart in the source and are kept apart here.

A short description of series [1]: Determination of log P values by HPLC on a reverse phase column (C18), EEC-Directive 79/831 Annex V.A8 (Methods A, B, C). Type of series: physicochemical. As to conditions: for chromatographic logP: reverse phase C18 HPLC column. Put shortly: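 Three C18 chromatographic methods following EEC-Directive 79/831 Annex V.A8 gave the logP values. Method C (UPLC, 2.1 mm column) ran at 40 °C and 0.8 mL/min with a 3.25 min 10–95% acetonitrile gradient. Methods A and B both ran at 55 °C and 2.0 mL/min, with gradients of 10–95% in 4.25 min and 5–95% in 1.70 min.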

A further series has as its system Sphaerotheca fuliginea. The series is described as follows: Example A: Sphaerotheca test (cucumber) / preventive. Type of series: in vivo.
For the next series, the system named is Uromyces appendiculatus. The series is described as follows: Example B: Uromyces test (beans) / preventive. The series is classed as in vivo. As to conditions: in vivo.
The next series concerns Leptosphaeria nodorum. The series is described as follows: Example C: Leptosphaeria test (wheat) / preventive. The series is classed as in vivo.
In the next series the test system is Pyrenophora teres. The series is described as follows: Example D: Pyrenophora test (barley) / preventive. The series is classed as in vivo.
A further series relates to Pyricularia oryzae. Type of series: in vivo.
In a further series the test system is Phytophthora infestans. The series is classed as in vivo.
In series [2] the test system is DON/Acetyl-DON production by Fusarium graminearum. The series is described as follows: microbe, parasite or virus in culture. The note with it: at 50 μM; for inhibition at 50 µM: Fusarium graminearum, read-out: Inhibition of DON/AcDON in %. The series is classed as cell-based.
Series [3] deals with Fusarium graminearum. The series is described as follows: microbe, parasite or virus in culture. The series is classed as cell-based. The note with it: for Growth inhibition of Fusarium graminearum in %: at 50 μM; for inhibition at 50 µM: Fusarium graminearum, read-out: Growth inhibition of Fusarium graminearum in %.
For another series, the system named is Puccinia recondita. The series is described as follows: Example E: Puccinia test (wheat) / preventive. The note with it: in vivo. The series is classed as in vivo.
In a further series the test system is Plasmopara viticola. The series is described as follows: Example H: Plasmopara test (grapevines) / preventive. Type of series: in vivo. The note with it: in vivo.
A further series concerns Septoria tritici. The series is described as follows: Example J: Septoria tritici test (wheat) / preventive. The series is classed as in vivo. As to conditions: in vivo.
In series [4] the test system is Fusarium nivale (var. majus). The series is described as follows: Example K: Fusarium nivale (var. majus) test (wheat) / preventive. Type of series: in vivo. As to conditions: 500 ppm of active ingredient, preventive spray, evaluated 5 days after inoculation. Here is the method:
After the spray coating has been dried, the plants are slightly injured by using a sandblast and afterwards they are sprayed with a conidia suspension of Fusarium nivale (var. majus).
The test is evaluated 5 days after the inoculation.

In series [5] the test system is Fusarium graminearum. The series is classed as in vivo. The note with it: in vivo.
A further series concerns Venturia inaequalis. The series is described as follows: Example I: Venturia test (apples) / preventive. The note with it: 100 ppm of active ingredient, preventive spray, evaluated 10 days after inoculation.
The mark [6] stands for this setting: Method B (HPLC, reverse phase C18).
The mark [7] stands for this setting: Method C (HPLC, reverse phase C18).
The mark [8] stands for this setting: pH 2.7, values in the synthesis examples, HPLC, reverse phase C18, read-out: log P (pH 2.7).
[9] abbreviates: 500 ppm of active ingredient, cucumber, preventive spray, evaluated 7 days after inoculation.
[10] abbreviates: 500 ppm of active ingredient, barley, preventive spray, evaluated 7-9 days after inoculation.
Setting [11] is: 500 ppm of active ingredient, rice, preventive spray, evaluated 7 days after inoculation.
Where [12] appears, read: 100 ppm of active ingredient, tomatoes, preventive spray, evaluated 3 days after inoculation.

Procedure for Venturia inaequalis: After the spray coating has dried on, the plants are inoculated with an aqueous conidia suspension of the causal agent of apple scab (Venturia inaequalis) and then remain for 1 day in an incubation cabinet at approximately 20° C. and a relative atmospheric humidity of 100%.
The plants are then placed in a greenhouse at approximately 21° C. and a relative atmospheric humidity of approximately 90%.
The test is evaluated 10 days after the inoculation.

As to `CC(=O)Nc1cc(-c2c(-c3ccc(F)cc3)nn3c2OCCC3)ccn1` [Example 2], in series [1] (setting [6]), the LogP was determined as 1.22. Moreover, the efficacy in the series with Sphaerotheca fuliginea (in vivo) worked out at 100%; with Uromyces appendiculatus, 74%; in the series with Leptosphaeria nodorum (in vivo), 88%; in the series on Pyrenophora teres (in vivo) it was 100%; with Pyricularia oryzae (in vivo), 90%; in the series on Phytophthora infestans (in vivo) it was 92%. The “Inhibition of DON/AcDON in %” value in series [2] was found to be 100%. Besides, the “Growth inhibition of Fusarium graminearum in %” value (“Growth inhibition … in %” for short) in the series on Fusarium graminearum [3] was determined as 57%.
For `CC(C)C(=O)Nc1cc(-c2c(-c3ccc(F)cc3)nn3c2OC[Si](C)(C)C3)ccn1` [Example 76], the LogP in series [1] (setting [7]) is listed as 2.14. For the same molecule, the efficacy in the series with Sphaerotheca fuliginea (in vivo) was found to be 95%; in the series with Uromyces appendiculatus, 94%; in the series on Leptosphaeria nodorum (in vivo) it was 75%; in the series with Pyrenophora teres (in vivo), 95%; with Puccinia recondita, 95%; with Pyricularia oryzae (in vivo) it was 90%. For the same molecule, the efficacy with Plasmopara viticola came to 100%; in the series with Septoria tritici, 86%; in series [4] it was 100%; with Fusarium graminearum [5] it was 86%; in the series with Venturia inaequalis, 100%.
`O=C(C1CC1)N(C(=O)C1CC1)c1cc(-c2c(-c3ccc(F)cc3)nn3cccnc23)ccn1` [Example 84]: the LogP in series [1] (setting [7]) is 2.94. The efficacy amounted to 88% with Sphaerotheca fuliginea (in vivo); 90% in the series on Pyrenophora teres (in vivo); 90% with Pyricularia oryzae (in vivo); 88% in the series on Septoria tritici; 100% in series [4]; 83% in the series with Fusarium graminearum [5].
Molecule `C[Si]1(C)COc2c(-c3ccnc(NC(=O)C4CC4)c3)c(-c3ccc(F)cc3)nn2C1` [Example 81] displayed a LogP in series [1] (setting [7]) of 2.18. In addition, the efficacy with Sphaerotheca fuliginea (in vivo) amounted to 98%; with Uromyces appendiculatus, 94%; with Leptosphaeria nodorum (in vivo), 75%; in the series on Pyrenophora teres (in vivo) it was 90%; in the series on Puccinia recondita, 100%; in the series on Pyricularia oryzae (in vivo), 95%. Besides, the efficacy in the series with Plasmopara viticola is listed as 100%; in the series on Septoria tritici, 88%; in series [4], 100%; in the series on Fusarium graminearum [5], 100%; in the series on Venturia inaequalis it was 99%.
Molecule `CC(C)(C)CC(=O)Nc1cc(-c2c(-c3ccc(F)cc3)nn3c2OCCC3)ccn1` [Example 34] displayed a LogP in series [1] (setting [6]) of 2.04. In addition, the efficacy is on record as 95% in the series with Sphaerotheca fuliginea (in vivo); 94% in the series with Uromyces appendiculatus; 90% in the series with Leptosphaeria nodorum (in vivo); 100% with Pyrenophora teres (in vivo); 100% with Puccinia recondita; 94% with Pyricularia oryzae (in vivo). Besides, the efficacy in the series with Septoria tritici is recorded as 88%; in [4], 75%; with Fusarium graminearum [5], 86%.
Molecule `C[C@H](O)C(=O)Nc1cc(-c2c(-c3ccccc3)nn3c2OCCC3)ccn1` [Example 12] gave a LogP in series [1] (setting [6]) of 1.2. Moreover, the efficacy was determined as 83% in the series with Sphaerotheca fuliginea (in vivo); 94% with Uromyces appendiculatus; 80% with Leptosphaeria nodorum (in vivo); 100% with Pyrenophora teres (in vivo); 100% in the series with Puccinia recondita; 100% in the series on Pyricularia oryzae (in vivo). Besides, the values for the efficacy (with Septoria tritici; in series [4]; in the series with Fusarium graminearum [5]) were 100%, 93% and 86%, respectively.
With `CC(=O)Nc1cc(-c2c(-c3ccccc3)nn3c2NCCC3)ccn1` [Example 55, N-[4-(2-phenyl-4,5,6,7-tetrahydropyrazolo[1,5-a]pyrimidin-3-yl)pyridin-2-yl]acetamide], the chromatographic logP in series [1] (Method C (HPLC, reverse phase C18), read-out: LogP) amounted to 1.13; in [1] (setting [8]) it was 1.13. For the same molecule, the efficacy with Sphaerotheca fuliginea (setting [9]) is on record as 88%; in the series on Pyrenophora teres (setting [10]), 90%; in the series with Pyricularia oryzae (setting [11]), 70%; with Phytophthora infestans (setting [12]), 91%; in the series on Venturia inaequalis, 93%. Moreover, the inhibition at 50 µM (in series [2]; in the series on Fusarium graminearum [3]) was 100% in each case.
In turn, `O=C(CC(F)(F)F)Nc1cc(-c2c(-c3ccc(F)cc3)nn3c2OCCC3)ccn1` [Example 31] showed a LogP in series [1] (setting [6]) of 2.13. Moreover, the efficacy is on record as 88% in the series with Sphaerotheca fuliginea (in vivo); 92% in the series on Uromyces appendiculatus; 95% in the series with Pyrenophora teres (in vivo); 100% in the series on Puccinia recondita; 94% in the series with Pyricularia oryzae (in vivo); 100% in the series on Septoria tritici. For the same molecule, the efficacy is recorded as 100% in series [4] and 86% in the series with Fusarium graminearum [5].
Turning to `O=C(Nc1cc(-c2c(-c3ccc(F)cc3F)nn3c2OCCC3)ccn1)C1CC1` [Example 36], the log partition coefficient (LogP) in series [1] (setting [6]) is on record as 1.42. In addition, the efficacy in the series on Sphaerotheca fuliginea (in vivo) is on record as 100%; with Uromyces appendiculatus, 92%; in the series with Leptosphaeria nodorum (in vivo) it was 90%; in the series on Pyrenophora teres (in vivo), 95%; in the series with Puccinia recondita, 100%; with Pyricularia oryzae (in vivo), 94%. Moreover, the efficacy amounted to 88% in the series with Septoria tritici, 88% in series [4] and 100% with Fusarium graminearum [5].
As for `O=C(CC1CC1)Nc1cc(-c2c(-c3ccc(F)cc3)nn3c2OCCC3)ccn1` [Example 27], the LogP in series [1] (setting [6]) turned out to be 1.69. For the same molecule, the efficacy amounted to 95% with Sphaerotheca fuliginea (in vivo); 90% with Leptosphaeria nodorum (in vivo); 95% with Pyrenophora teres (in vivo); 100% with Puccinia recondita; 100% with Pyricularia oryzae (in vivo); 100% in the series with Septoria tritici. In the series with Fusarium graminearum [5], this molecule registered an efficacy of 86%.
Molecule `O=C(Nc1cc(-c2c(-c3ccccc3)nn3c2OCCC3)ccn1)C1CCOCC1` [Example 14] returned a LogP in series [1] (setting [6]) of 1.22. The efficacy amounted to 100% in the series with Sphaerotheca fuliginea (in vivo); 94% in the series with Uromyces appendiculatus; 95% in the series with Leptosphaeria nodorum (in vivo); 95% in the series on Pyrenophora teres (in vivo); 100% in the series on Puccinia recondita; 94% with Pyricularia oryzae (in vivo). Moreover, the efficacy with Septoria tritici came out at 100%; in [4], 100%; in the series with Fusarium graminearum [5] it was 86%. Also, the “Inhibition of DON/AcDON in %” value in series [2] amounted to 100%. Also, the “Growth inhibition … in %” value with Fusarium graminearum [3] was found to be 95%.
With `O=C(Nc1cc(-c2c(-c3ccc(F)cc3)nn3c2OCC3)ccn1)C1CC1` [Example 3, N-{4-[6-(4-fluorophenyl)-2,3-dihydropyrazolo[5,1-b][1,3]oxazol-7-yl]pyridin-2-yl}cyclopropanecarboxamide], the chromatographic logP in [1] (Method B (HPLC, reverse phase C18), read-out: LogP) was determined as 1.48; in series [1] (setting [8]), 1.48. In addition, the efficacy is listed as 93% in the series with Sphaerotheca fuliginea (setting [9]); 88% in the series on Leptosphaeria nodorum (500 ppm of active ingredient, wheat, preventive spray, evaluated 7-9 days after inoculation); 100% with Pyrenophora teres (setting [10]); 95% with Pyricularia oryzae (setting [11]); 92% in the series on Phytophthora infestans (setting [12]). Besides, the inhibition at 50 µM amounted to 98% in series [2] and 57% in the series on Fusarium graminearum [3].
The molecule `O=C(Nc1cc(-c2c(-c3ccc(F)cc3F)nn3c2OCCC3)ccn1)C1CCOCC1` [Example 43] came in with a LogP in [1] (setting [6]) of 1.39. The efficacy in the series on Sphaerotheca fuliginea (in vivo) is recorded as 100%; with Uromyces appendiculatus it was 92%; with Leptosphaeria nodorum (in vivo) it was 70%; in the series with Pyrenophora teres (in vivo), 95%; in the series with Puccinia recondita, 100%; with Pyricularia oryzae (in vivo) it was 94%. For the same molecule, the efficacy in the series with Septoria tritici stood at 88%; in series [4] it was 88%; with Fusarium graminearum [5], 100%. Besides, the “Inhibition of DON/AcDON in %” value in [2] stood at 100%. The “Growth inhibition … in %” value in the series on Fusarium graminearum [3] is 89%.
With `CCC(C)C(=O)Nc1cc(-c2c(-c3ccc(F)cc3)nn3c2OCCC3)ccn1` (centres unmarked) [Example 24], the LogP in [1] (setting [6]) is reported as 1.82. The efficacy in the series on Sphaerotheca fuliginea (in vivo) is listed as 98%; in the series with Uromyces appendiculatus, 94%; in the series on Leptosphaeria nodorum (in vivo) it was 95%; in the series on Pyrenophora teres (in vivo), 95%; in the series with Puccinia recondita it was 100%; with Pyricularia oryzae (in vivo) it was 94%. The efficacy was 100% in the series on Septoria tritici, 100% in [4] and 90% in the series on Fusarium graminearum [5]. For the same molecule, in [2], the “Inhibition of DON/AcDON in %” value is given as 94%. For the same molecule, the “Growth inhibition … in %” value with Fusarium graminearum [3] stood at 91%.
`O=C(CC1CC1)Nc1cc(-c2c(-c3ccccc3)nn3c2OCCC3)ccn1` [Example 13] registered a LogP in [1] (setting [6]) of 1.54. The efficacy was 70% in the series with Sphaerotheca fuliginea (in vivo); 92% in the series on Uromyces appendiculatus; 95% in the series with Pyrenophora teres (in vivo); 95% with Puccinia recondita; 100% in the series on Pyricularia oryzae (in vivo); 100% in the series on Septoria tritici. This molecule also registered an efficacy with Fusarium graminearum [5] of 71%.

Broadly, the LogP is a log measure of how a compound divides between an organic and an aqueous phase.
